pEC50: −log10 of the molar value. The source made the active and inactive calls.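 Rule for the calls: active = EC50 at or below a set limit, with no effect in the paired counter-screen assay; inactive = the rest.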
Target: Aedes aegypti neuropeptide Y-like receptor 7 (NPYLR7)
Assay: NPYLR7 activation potency in cells – cell-based, Aedes aegypti, hit validation, mosquito biting behavior, confirmation (AID 1259427);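 note: potency of agonists that activate the receptor and raise the calcium signal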
Details: HEK293T NPYLR7/Galpha15/GCaMP6s, calcium fluorescence

| SMILES | EC50 | pEC50 |
| --- | --- | --- |
| CCCn1c2c(c(=O)n(C)c1=O)C(=O)C(=Cc1ccc(N(C)C)cc1)N2 | inactive |  |
| Nc1c2c(nc3sc4c(c13)CCCC4)CCCCC2 | > 20 µM (inactive) |  |
| COc1cccc(CN2C(=O)c3cccc(N)c3C2=O)c1 | > 20 µM (inactive) |  |
| O=C(Cc1ccc2c(c1)CCC2)NCC1CCN(c2ccccc2)C1 (stereo not drawn) | > 20 µM (inactive) |  |
| CSc1nc(N)c2ncn([C@@H]3O[C@H](COP(=O)(O)OP(=O)(O)OP(=O)(O)O)[C@H](O)C3O)c2n1 (stereo partly drawn) | inactive |  |
| O=C(COc1ccccc1)N1CCCC(CNS(=O)(=O)c2cccs2)C1 (stereo not drawn) |  | 4.88 |
| CN(Cc1ccccc1)C1=CC2=CC(=C(C#N)C#N)CCC2CC1 (stereo not drawn) |  | 5.29 |
| C[C@H](O)C(=O)C1=Nc2c(nc(N)[nH]c2=O)NC1 | > 20 µM (inactive) |  |
| Cc1cccc(N2C(=O)NC(=O)/C(=C/c3cn(C)c4ccccc34)C2=O)c1 | > 20 µM (inactive) |  |
| Clc1ccc(-c2noc3c2CN(CCn2cc(Cl)cn2)CC3)cc1 | > 20 µM (inactive) |  |
| O=C1C(=Cc2ccc(OC(F)F)cc2OC(F)F)Oc2cc(O)ccc21 | > 20 µM (inactive) |  |
| CC1CCCCC1OCCNC(=O)C1(c2ccc(F)cc2)CCC1 (stereo not drawn) | > 20 µM (inactive) |  |
| O=C1/C(=C/c2cccc(F)c2)Oc2c1ccc(O)c2CN1CCN(CCO)CC1 | > 20 µM (inactive) |  |
| COC(=O)c1cc(N)c(/C=C/c2cccs2)s1 | inactive |  |
| Oc1ccc(-c2onc3ccc(Cl)cc23)cc1 | > 20 µM (inactive) |  |
| COc1cc(C=C(C#N)S(=O)(=O)c2cc(Br)ccc2Br)ccc1O | > 20 µM (inactive) |  |
| CC(C(=O)O)N1C(=O)/C(=C\c2ccc(O)cc2)SC1=S (stereo not drawn) | > 20 µM (inactive) |  |
| CNC[C@@H](O)c1ccc(O)c(O)c1 | > 20 µM (inactive) |  |
| COCCN=Cc1cc(I)cc(I)c1O | > 20 µM (inactive) |  |
| O=P1(Nc2cc(C(F)(F)F)ccc2Cl)C=C(c2ccccc2)OC(c2ccccc2)=C1 | > 20 µM (inactive) |  |

| SMILES | EC50 | pEC50 |
| --- | --- | --- |
| Cc1c(NC(=O)COC(=O)C(C#N)=Cc2ccc(N(C)C)cc2)c(=O)n(-c2ccccc2)n1C | > 20 µM (inactive) |  |
| CCOC(=O)C1CCN(C(=O)CC(c2cccc(C(F)(F)F)c2)c2c[nH]c3c(CC)cccc23)CC1 (stereo not drawn) | > 20 µM (inactive) |  |
| CC(C)(C)c1cnc(CSc2cnc(NC(=O)C3CCNCC3)s2)o1 |  | 4.83 |
| COc1ccc(C(=O)C=Cc2cc(Br)c(O)c(OC)c2)cc1F | inactive |  |
| CC(=O)NCCc1ccc(O)c(O)c1 | inactive |  |
| CCCCCn1c(=O)c2c(nc3n2CCN3c2cc(C)cc(C)c2)n(C)c1=O | > 20 µM (inactive) |  |
| CCCC[n+]1c(C)cc(C=C2Sc3ccccc3N2C)cc1C | > 20 µM (inactive) |  |
| CNC[C@H](O)c1ccc(O)c(O)c1 | inactive |  |
| COc1cc(-c2nc3n(n2)C(c2ccc(O)cc2)C(C(N)=O)=C(C)N3)cc(OC)c1OC (stereo not drawn) | > 20 µM (inactive) |  |
| CCOc1ccc(C(=O)Nc2sc3c(c2-c2nc4ccccc4s2)CCN(C)C3)cc1 | > 20 µM (inactive) |  |
| CC(C)C(=O)Nc1sc2c(c1-c1nc3ccccc3s1)CCN(C)C2 | > 20 µM (inactive) |  |
| COc1ccc(Cl)cc1NC(=O)/C(C#N)=C/c1coc2ccc(C)cc2c1=O | > 20 µM (inactive) |  |
| Cc1ccc(Cl)c(Oc2cc(N3CCN(C(=O)c4ccc(Cl)c(Cl)c4)CC3)ncn2)c1 | > 20 µM (inactive) |  |
| COc1ccc(/C=C2\Oc3c(ccc4c3CN(Cc3ccncc3)CO4)C2=O)cc1 | inactive |  |
| Cc1cccc(C2=N/C(=C\c3cc4cc5c6c(c4oc3=O)CCCN6CCC5)C(=O)O2)c1 | inactive |  |
| Cc1ccc(CN(Cc2ccc(F)cc2)C(=O)CNCCN2CCOCC2)s1 | > 20 µM (inactive) |  |
| COc1ccc(OC)c(CCNc2nc3cnc(-c4cccc5ccccc45)cc3n2C)c1 |  | 4.91 |
| COc1ccc(-c2cnn(CCC(N)=O)c2)c(C)c1 | > 20 µM (inactive) |  |
| Cc1ccc(-c2nc3nc(N)n(C)c(=O)c3[nH]c2=O)cc1 | > 20 µM (inactive) |  |
| CCCCC(CC)CN=C(N)NC(N)=NCCCCCCN=C(N)NC(N)=NCC(CC)CCCC (stereo not drawn) |  | 4.76 |

| SMILES | EC50 | pEC50 |
| --- | --- | --- |
| Cc1cccc(Oc2nc3ccccn3c(=O)c2/C=C(\C#N)c2nc3ccccc3s2)c1 | > 20 µM (inactive) |  |
| C(=Cc1ccccc1)C=NNc1ncnc2ccccc12 | > 20 µM (inactive) |  |
| Clc1cccc2ccc(CN3CCn4cncc4C3)nc12 | > 20 µM (inactive) |  |
| Nc1ccc2c3c(cccc13)C(=O)N(c1ccccc1)C2=O | inactive |  |
| CCN1CCN(Cc2c(O)cc(C)c3c2O/C(=C\c2ccco2)C3=O)CC1 | > 20 µM (inactive) |  |
| COc1cccc(-n2c(O)c(C=Nc3cc(OC)ccc3OC)c3ccccc3c2=O)c1 | > 20 µM (inactive) |  |
| Cc1ccc(N2C(=O)NC(=O)/C(=C\c3cccs3)C2=O)cc1 | > 20 µM (inactive) |  |
| O=C(O)c1ccccc1-c1c2cc(Br)c(=O)cc-2oc2[c]([Hg])c(O)c(Br)cc12 | < 0.039 µM (inactive) |  |
| COc1ccc2c(C)nc(N=C(N)N)nc2c1 |  | 4.71 |
| CN1C(=S)N(CCCN2CCOCC2)C(=O)/C1=C/c1ccc(N(C)C)cc1 | > 20 µM (inactive) |  |
| O=C1SC(Nc2ccc(Br)cc2)C(=O)N1c1ccccc1 (stereo not drawn) | > 20 µM (inactive) |  |
| Cc1cc(O)c(CN2CCCCC2)c2c1C(=O)/C(=C/c1cc3ccccc3o1)O2 | > 20 µM (inactive) |  |
| CCn1c(=O)c2c(nc(/C=C/c3ccc(OC)c(OC)c3)n2C)n(CC)c1=O | > 20 µM (inactive) |  |
| CC(C)NCC(O)c1ccc(O)c(O)c1 (stereo not drawn) | > 20 µM (inactive) |  |
| CC(C)N=c1c([N+](=O)[O-])nn(-c2ccc(Cl)cc2)n1O | > 20 µM (inactive) |  |
| COc1ccc(N2C(=O)/C(=C\c3ccc[nH]3)N(C)C2=S)c([N+](=O)[O-])c1 | > 20 µM (inactive) |  |
| CCN1CCN(C2=CC3=CC(=C(C#N)C#N)CCC3CC2)CC1 (stereo not drawn) | < 0.039 µM (inactive) |  |
| O=[N+]([O-])c1ccc(-n2nc3ccc4nonc4c3n2)cc1 | > 20 µM (inactive) |  |

— PubChem BioAssay AID1259427 (Fisher Drug Discovery Resource Center, 2018)
